Measurements from patent US20090061022A1, “Pharmaceutical composition comprising arsenite for the treatment of malignancy” (priority 2004, published 2009).
Where “and” joins values, the source holds several entries; their conditions need not be identical. Equal entries are not always repeated.

What was measured:
RXF 944LX = test: Dose finding study in human renal cancer model RXF 944LX in nude mice (i.p. days 0, 7, 14); conditions: for BW loss % (day) / Drug-related deaths / Rating / SGD (specific growth delay) / T/C %: days 0, 7, 14
Description: In a dose finding study, the potential anticancer activity of sodium meta-arsenite and arsenic acid sodium salt versus arsenic trioxide was examined in the human renal cancer model, RXF 944LX.
Cancer fragments (1-2 mm in diameter), obtained from xenografts in serial passage in nude mice, were implanted subcutaneously (S.C.) in a flank of male NRMI nude mice (one fragment per mouse). Mice with appropriate cancer volumes (5-7 mm in diameter) were randomly distributed to treatment and control groups (4 mice/group). The start of treatment was day 0. Cancer volume and body weights were measured at least twice per week.
1) Sodium meta-arsenite (3, 10, 30 mg/kg/day), 2) Arsenic acid sodium salt (3, 10, 30 mg/kg/day) and 3) Arsenic trioxide (3, 10, 30 mg/kg/day) were administered intraperitoneally (i.p.) once daily on days 0, 7 and 14.
Stock solution of sodium meta-arsenite and arsenic acid sodium salt (3 mg/ml) were prepared in 5% (w/v) dextrose solution, respectively, to minimize acute arsenic toxicity. For arsenic trioxide, 9 mg of arsenic trioxide was dissolved in 1M NaOH (75 μl) followed by mixing with sterile aqua injectabilia (2175 μl) and sterile 20% (w/v) dextrose in water (500 μl). Further dilution to the desired concentration was done with a 5% dextrose solution to give a final concentration of 3 mg/ml.
The cancer volume of each animal was determined by two-dimensional measurement using calipers. The volume was calculated according to the formula: (a×b^2)×0.5; wherein a and b represent two perpendicular diameters in which a (length) is the larger diameter and b (width) the smaller diameter.
Relative cancer volumes (RCV) were calculated for each individual cancer by dividing the cancer volume on day X by the cancer volume on day 0 multiplied by 100%. The cancer volume of a treatment group was expressed as the median RCV of all mice of the group. Median RCV values were used for drawing growth curves and treatment evaluation. Optimal cancer growth inhibition at a particular day within the treatment period was calculated from the median RCV values of the treated (T) versus the controlled (C) group multiplied by 100%. A T/C value<50% was considered as anti-cancer activity.

[1] = Maximum tolerated dose assessment after daily oral gavages for 14 days in the mouse; type: in vivo, CD-1 mice
Experimental: The objective of this oral toxicity study was to establish a MTD after repeated administration of sodium meta-arsenite to mice.
Ampoules of sodium meta-arsenite (dissolved in 10% (w/v) glucose in water) in concentrations of 1, 1.6, 2.6, 4.1 and 6.5 mg/ml were stored in a refrigerator in the dark. Based on the previous study, the following doses were selected: 10, 16, 26, and 41 and 65 mg/kg/day. Each dose was administered daily by oral gavages to groups of 4 male and 4 CD-1 mice for 14 days, followed by a 14-day recovery period.
Clinical signs were evaluated daily and body weights were recorded twice weekly. Scheduled termination was performed on day 29 (after 14 days of recovery). Macroscopic examination was performed on all animals.

[2] = tested on: panel of forty-one (41) human cancer cell lines; test: Cytotoxic activity, panel of forty-one (41) human cancer cell lines
Description: In a next study, the cytotoxic activity of sodium meta-arsenite was head-to-head compared with arsenic trioxide in panels loaded with 41 cancer cell lines from ten human cancers.

[3] = 10 mg/kg i.p., listed as sodium meta-arsenite
[4] = panel of 41 human cancer cell lines

O=[As][O-].[Na+] [Sodium meta-arsenite, sodium meta-arsenite]
BW loss % (day) (RXF 944LX; 3 mg/kg i.p.): +6.8 (21) % | Drug-related deaths (RXF 944LX; 3 mg/kg i.p.): 0/4 | Rating (RXF 944LX; 3 mg/kg i.p.): + (+T/C < 50) | SGD (specific growth delay) (RXF 944LX; 3 mg/kg i.p.): 0.4 | T/C % (RXF 944LX; 3 mg/kg i.p.): 19% | BW loss % (day) (RXF 944LX; 10 mg/kg i.p.): +8.7 (21) % | Drug-related deaths (RXF 944LX; 10 mg/kg i.p.): 0/4 | Rating (RXF 944LX; 10 mg/kg i.p.): − (−T/C ≧ 50%) | SGD (specific growth delay) (RXF 944LX; 10 mg/kg i.p.): −0.1 | T/C % (RXF 944LX; 10 mg/kg i.p.): 51% | BW loss % (day) (RXF 944LX; [3]): no lethality or body weight loss was observed | Drug-related deaths (RXF 944LX; [3]): no lethality or body weight loss was observed | Drug-related deaths (RXF 944LX; 30 mg/kg i.p.): 4/4 | Drug-related deaths (RXF 944LX; 30 mg/kg i.p., listed as sodium meta-arsenite): died within a few days after the first injection | Maximum Tolerated Dose (MTD) (RXF 944LX; i.p. once daily on days 0, 7 and 14, RXF 944LX bearing nude mice): 10 mg/kg/day | Findings ([1]; 10 mg/kg/day oral gavage 14 days, mouse): No findings were noted | Findings ([1]; 16 mg/kg/day oral gavage 14 days, mouse): Piloerection on the head was noted for one male on days 4 and 5 | Findings (mortality) ([1]; 26 mg/kg/day oral gavage 14 days, mouse): No unscheduled mortality occurred | Findings (mortality) ([1]; 41 mg/kg/day oral gavage 14 days, mouse): All males died on days 2-4 and all females on days 2-7 | Findings (mortality) ([1]; 65 mg/kg/day oral gavage 14 days, mouse): All animals died on days 2 or 3, all females died on day 1 or 2 | MTD (or LD10 value) ([1]; mice, males and females, oral once daily 14 days, calculated): 32 mg/kg/day | MTD ([1]; mouse, oral once daily 14 days): 96 mg/m^2/day | activity in panel of 41 ([2]; 0.01 μg/ml and 0.001 μg/ml): showed no activity | cancer cell lines that responded, out of forty one (41) ([2]; 0.1 μg/ml): 16 | cancer cell lines that responded, percent of 41 ([2]; 1 μg/ml, more than 70% growth inhibition): 80% | cancer cell lines in which active, percent of 41 ([2]; 10 μg/ml): 100% | selectivity (individual IC70<½ mean IC70), fraction of cell lines ([2]; breast (mammary) cancer cell lines): ¾ | fold more potent than arsenic trioxide ([2]; conclusion of in vitro data): at least 10 fold | selectivity (individual IC70<½ mean IC70), fraction of cell lines ([2]; leukemia cell lines): ¾ | selectivity (individual IC70<½ mean IC70), fraction of cell lines ([2]; melanoma cell lines): 4/7 | Mean IC50 [2, 4]: 0.129 µg/mL | Mean IC70 [2, 4]: 0.329 μg/ml and 2.53 μM | Mean IC90 [2, 4]: 1.691 µg/mL | Mean IC70 ([2]; panel of 41 human cancer cell lines, listed as sodium meta-arsenite): 0.329 μg/ml and 2.53 μM | IC50 ([2]; read-out: Mean IC50, panel of 41 human cancer cell lines): 0.99 µM | IC90 ([2]; read-out: Mean IC90, panel of 41 human cancer cell lines): 13 µM
